# According to BindingDB's records for doi:10.1016/S0960-894X(01)00722-3 (Janssen-Cilag, 2001):
# Experiments:
# Histamine H1 receptor = Histamine H1 receptor (Homo sapiens, UniProt P35367); assay: ChEBML_84541
# Description: Binding affinity at human cloned Histamine H1 receptor expressed in CHO cells by [3H]pyrilamine displacement.
# D(2) dopamine receptor [1] = target: D(2) dopamine receptor (Rattus norvegicus, UniProt P61169); assay: ChEBML_60811
# Description: Binding affinity for rat Dopamine receptor D2
# [2] = target: T1, 5-hydroxytryptamine receptor 1A (Homo sapiens, UniProt P08908); assay: ChEBML_1016
# T1 sequence (P08908 whole entry): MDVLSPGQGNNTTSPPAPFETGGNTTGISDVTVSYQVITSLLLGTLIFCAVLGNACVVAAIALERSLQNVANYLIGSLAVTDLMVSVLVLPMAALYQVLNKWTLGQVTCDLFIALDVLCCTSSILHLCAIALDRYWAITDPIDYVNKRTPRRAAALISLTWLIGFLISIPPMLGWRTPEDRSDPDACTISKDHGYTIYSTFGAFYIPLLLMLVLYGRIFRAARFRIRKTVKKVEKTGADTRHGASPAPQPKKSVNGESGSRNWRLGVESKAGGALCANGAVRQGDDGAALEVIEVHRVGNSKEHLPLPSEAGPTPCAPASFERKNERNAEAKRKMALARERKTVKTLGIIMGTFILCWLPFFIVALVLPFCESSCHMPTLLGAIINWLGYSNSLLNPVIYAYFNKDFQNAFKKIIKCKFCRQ
# Description: Binding affinity for human cloned 5-hydroxytryptamine 1A receptor
# D(2) dopamine receptor [3] = target: D(2) dopamine receptor (Homo sapiens, UniProt P14416); assay: ChEBML_61646
# D(2) dopamine receptor (Homo sapiens, UniProt P14416), sequence (P14416 whole entry): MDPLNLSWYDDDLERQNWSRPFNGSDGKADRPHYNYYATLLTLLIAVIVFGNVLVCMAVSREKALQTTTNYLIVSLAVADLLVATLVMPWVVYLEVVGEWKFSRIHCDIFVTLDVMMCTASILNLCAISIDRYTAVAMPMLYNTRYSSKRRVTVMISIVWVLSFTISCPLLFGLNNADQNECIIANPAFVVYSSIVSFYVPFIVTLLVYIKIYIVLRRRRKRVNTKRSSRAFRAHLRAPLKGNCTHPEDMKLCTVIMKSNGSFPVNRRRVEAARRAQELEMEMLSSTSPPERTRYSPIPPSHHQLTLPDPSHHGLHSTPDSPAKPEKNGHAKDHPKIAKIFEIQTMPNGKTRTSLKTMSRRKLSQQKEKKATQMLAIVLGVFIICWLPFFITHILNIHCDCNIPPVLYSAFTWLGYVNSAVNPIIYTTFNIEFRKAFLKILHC
# Description: Binding affinity for human cloned Dopamine receptor D2L
# [4] = target: 5-hydroxytryptamine receptor 1D (Homo sapiens, UniProt P28221); assay: ChEBML_1745
# 5-hydroxytryptamine receptor 1D, sequence (P28221 whole entry): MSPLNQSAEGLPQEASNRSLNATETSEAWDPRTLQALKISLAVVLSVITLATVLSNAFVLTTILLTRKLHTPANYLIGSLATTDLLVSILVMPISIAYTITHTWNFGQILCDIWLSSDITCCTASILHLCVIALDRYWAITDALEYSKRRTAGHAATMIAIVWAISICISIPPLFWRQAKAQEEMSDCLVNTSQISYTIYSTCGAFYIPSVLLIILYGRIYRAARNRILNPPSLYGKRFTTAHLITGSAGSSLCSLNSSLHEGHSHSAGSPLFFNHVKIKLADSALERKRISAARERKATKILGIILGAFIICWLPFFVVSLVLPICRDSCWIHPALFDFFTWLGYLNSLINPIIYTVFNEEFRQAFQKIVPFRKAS
# Description: Binding affinity for human cloned 5-hydroxytryptamine 1D receptor
# [5] = target: T2, Alpha-2C adrenergic receptor (Homo sapiens, UniProt P18825); assay: ChEBML_33661
# T2 sequence (P18825 whole entry): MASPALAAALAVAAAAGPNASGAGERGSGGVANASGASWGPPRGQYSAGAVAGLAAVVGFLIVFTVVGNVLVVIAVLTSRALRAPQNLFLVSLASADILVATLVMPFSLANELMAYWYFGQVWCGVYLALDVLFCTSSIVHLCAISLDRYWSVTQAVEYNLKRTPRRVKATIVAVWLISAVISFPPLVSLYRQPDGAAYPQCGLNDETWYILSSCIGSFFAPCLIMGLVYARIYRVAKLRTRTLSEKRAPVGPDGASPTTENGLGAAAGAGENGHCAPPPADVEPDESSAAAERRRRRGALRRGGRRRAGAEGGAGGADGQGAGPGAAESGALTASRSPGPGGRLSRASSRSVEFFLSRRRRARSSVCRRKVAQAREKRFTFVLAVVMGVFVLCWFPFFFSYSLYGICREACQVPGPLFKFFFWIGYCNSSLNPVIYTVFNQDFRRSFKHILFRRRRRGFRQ
# Description: Binding affinity for human cloned Alpha-2C adrenergic receptor
# [6] = target: T3, Alpha-2A adrenergic receptor (Homo sapiens, UniProt P08913); assay: ChEBML_33198
# T3 sequence (P08913 whole entry): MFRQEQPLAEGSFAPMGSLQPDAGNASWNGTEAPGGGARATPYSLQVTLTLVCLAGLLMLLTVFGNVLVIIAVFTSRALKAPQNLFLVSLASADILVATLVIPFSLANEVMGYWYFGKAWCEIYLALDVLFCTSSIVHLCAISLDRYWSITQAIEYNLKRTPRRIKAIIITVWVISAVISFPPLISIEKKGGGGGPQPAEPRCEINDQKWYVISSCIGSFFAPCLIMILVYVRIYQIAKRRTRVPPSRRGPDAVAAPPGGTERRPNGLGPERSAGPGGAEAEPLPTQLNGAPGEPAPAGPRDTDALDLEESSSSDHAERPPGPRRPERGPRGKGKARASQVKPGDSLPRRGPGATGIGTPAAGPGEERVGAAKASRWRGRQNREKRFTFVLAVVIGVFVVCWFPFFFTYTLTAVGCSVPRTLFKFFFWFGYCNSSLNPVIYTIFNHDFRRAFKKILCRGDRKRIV
# Description: Binding affinity for human cloned Alpha-2A adrenergic receptor
# [7] = target: T4, Alpha-1A adrenergic receptor (Homo sapiens, UniProt P35348); assay: ChEBML_33869
# T4 sequence (P35348 whole entry): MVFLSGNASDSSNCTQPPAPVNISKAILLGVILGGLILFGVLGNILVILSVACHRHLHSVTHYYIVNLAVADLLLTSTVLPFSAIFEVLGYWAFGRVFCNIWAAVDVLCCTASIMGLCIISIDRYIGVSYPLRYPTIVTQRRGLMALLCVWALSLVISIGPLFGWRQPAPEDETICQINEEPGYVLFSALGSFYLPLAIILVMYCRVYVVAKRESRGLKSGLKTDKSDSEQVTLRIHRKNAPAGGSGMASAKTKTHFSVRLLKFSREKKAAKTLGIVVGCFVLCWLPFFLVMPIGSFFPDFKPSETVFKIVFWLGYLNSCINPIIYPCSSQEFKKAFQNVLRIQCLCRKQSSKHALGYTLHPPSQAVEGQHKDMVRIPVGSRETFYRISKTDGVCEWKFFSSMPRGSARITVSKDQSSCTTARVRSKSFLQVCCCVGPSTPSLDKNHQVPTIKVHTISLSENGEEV
# Description: Binding affinity for human cloned Alpha-1A adrenergic receptor
# D(3) dopamine receptor = D(3) dopamine receptor (Homo sapiens, UniProt P35462); assay: ChEBML_62451
# D(3) dopamine receptor, sequence (P35462 as listed by the source): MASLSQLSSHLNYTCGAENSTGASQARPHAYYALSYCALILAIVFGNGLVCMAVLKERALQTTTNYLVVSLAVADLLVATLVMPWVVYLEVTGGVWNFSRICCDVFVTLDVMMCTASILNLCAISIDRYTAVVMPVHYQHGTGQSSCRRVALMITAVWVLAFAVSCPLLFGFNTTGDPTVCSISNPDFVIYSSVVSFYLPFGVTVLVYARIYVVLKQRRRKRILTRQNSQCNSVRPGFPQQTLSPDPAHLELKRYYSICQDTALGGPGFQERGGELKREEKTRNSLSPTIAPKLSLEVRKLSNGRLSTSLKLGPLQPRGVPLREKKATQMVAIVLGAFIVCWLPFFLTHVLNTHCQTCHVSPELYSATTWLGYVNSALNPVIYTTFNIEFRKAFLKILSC
# Description: Binding affinity for human cloned Dopamine receptor D3
# D(4) dopamine receptor = target: T5, D(4) dopamine receptor (Homo sapiens, UniProt P21917); assay: ChEBML_60841
# T5 sequence (P21917 whole entry): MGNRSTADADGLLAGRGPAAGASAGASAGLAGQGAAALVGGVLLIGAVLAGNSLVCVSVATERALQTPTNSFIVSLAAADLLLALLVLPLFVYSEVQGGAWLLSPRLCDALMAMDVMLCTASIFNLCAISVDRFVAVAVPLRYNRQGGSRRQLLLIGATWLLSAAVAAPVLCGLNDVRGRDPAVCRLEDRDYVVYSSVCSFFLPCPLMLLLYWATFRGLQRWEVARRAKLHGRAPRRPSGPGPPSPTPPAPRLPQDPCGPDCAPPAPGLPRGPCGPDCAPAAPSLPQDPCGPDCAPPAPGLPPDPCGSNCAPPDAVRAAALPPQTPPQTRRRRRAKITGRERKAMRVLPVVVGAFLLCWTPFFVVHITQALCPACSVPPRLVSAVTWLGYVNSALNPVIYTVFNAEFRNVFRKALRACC
# Description: Binding affinity for human cloned Dopamine receptor D4
# [8] = target: T6, 5-hydroxytryptamine receptor 2A (Homo sapiens, UniProt P28223); assay: ChEBML_2507
# T6 sequence (P28223 whole entry): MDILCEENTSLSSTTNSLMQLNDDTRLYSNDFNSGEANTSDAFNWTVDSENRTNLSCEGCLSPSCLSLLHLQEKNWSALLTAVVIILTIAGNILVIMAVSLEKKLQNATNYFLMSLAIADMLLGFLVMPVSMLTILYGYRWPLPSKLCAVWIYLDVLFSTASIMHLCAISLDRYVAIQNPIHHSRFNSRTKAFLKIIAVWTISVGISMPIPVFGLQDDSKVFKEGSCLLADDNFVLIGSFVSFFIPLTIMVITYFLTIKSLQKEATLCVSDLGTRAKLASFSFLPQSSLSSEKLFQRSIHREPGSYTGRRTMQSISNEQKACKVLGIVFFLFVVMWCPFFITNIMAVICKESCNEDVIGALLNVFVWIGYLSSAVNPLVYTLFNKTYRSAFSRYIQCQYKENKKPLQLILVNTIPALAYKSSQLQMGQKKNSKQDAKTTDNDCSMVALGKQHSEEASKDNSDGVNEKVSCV
# Description: (§1) Binding affinity for human cloned 5-HT2A receptor expressed in L929 cells using [125I]R91150 as radioligand
# [9] = target: T7, 5-hydroxytryptamine receptor 2C (Homo sapiens, UniProt P28335); assay: ChEBML_2740
# T7 sequence (P28335 whole entry): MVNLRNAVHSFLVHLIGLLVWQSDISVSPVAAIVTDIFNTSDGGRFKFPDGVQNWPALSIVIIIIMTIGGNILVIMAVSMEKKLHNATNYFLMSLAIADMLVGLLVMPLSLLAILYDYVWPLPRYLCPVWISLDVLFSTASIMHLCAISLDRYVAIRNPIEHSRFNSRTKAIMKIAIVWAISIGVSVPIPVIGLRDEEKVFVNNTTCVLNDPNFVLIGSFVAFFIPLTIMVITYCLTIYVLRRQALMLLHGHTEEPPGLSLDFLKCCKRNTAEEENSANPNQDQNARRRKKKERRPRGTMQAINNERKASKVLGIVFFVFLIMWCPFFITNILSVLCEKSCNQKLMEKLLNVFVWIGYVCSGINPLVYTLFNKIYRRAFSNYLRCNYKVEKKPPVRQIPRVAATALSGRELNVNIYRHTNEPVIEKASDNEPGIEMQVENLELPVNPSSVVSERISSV
# Description: Binding affinity at human cloned 5-hydroxytryptamine 2C receptor expressed in CHO cells by [3H]mesulergine displacement.
# [10] = target: T6, 5-hydroxytryptamine receptor 2A; assay: as §1
# D(2) dopamine receptor (Rattus norvegicus, UniProt P61169), sequence (P61169 whole entry): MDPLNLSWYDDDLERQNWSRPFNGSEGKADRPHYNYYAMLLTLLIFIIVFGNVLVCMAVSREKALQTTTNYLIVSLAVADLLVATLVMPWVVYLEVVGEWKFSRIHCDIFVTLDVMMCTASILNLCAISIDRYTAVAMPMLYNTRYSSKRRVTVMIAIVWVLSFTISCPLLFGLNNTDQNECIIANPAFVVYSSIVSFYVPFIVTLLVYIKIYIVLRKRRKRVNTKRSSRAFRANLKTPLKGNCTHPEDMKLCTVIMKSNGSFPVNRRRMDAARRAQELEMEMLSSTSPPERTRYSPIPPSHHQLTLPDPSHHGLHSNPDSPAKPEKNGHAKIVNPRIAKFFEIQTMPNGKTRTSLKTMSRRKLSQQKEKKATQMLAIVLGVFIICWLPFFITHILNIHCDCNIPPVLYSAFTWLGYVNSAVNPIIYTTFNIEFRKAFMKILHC
# Histamine H1 receptor, sequence (P35367 whole entry): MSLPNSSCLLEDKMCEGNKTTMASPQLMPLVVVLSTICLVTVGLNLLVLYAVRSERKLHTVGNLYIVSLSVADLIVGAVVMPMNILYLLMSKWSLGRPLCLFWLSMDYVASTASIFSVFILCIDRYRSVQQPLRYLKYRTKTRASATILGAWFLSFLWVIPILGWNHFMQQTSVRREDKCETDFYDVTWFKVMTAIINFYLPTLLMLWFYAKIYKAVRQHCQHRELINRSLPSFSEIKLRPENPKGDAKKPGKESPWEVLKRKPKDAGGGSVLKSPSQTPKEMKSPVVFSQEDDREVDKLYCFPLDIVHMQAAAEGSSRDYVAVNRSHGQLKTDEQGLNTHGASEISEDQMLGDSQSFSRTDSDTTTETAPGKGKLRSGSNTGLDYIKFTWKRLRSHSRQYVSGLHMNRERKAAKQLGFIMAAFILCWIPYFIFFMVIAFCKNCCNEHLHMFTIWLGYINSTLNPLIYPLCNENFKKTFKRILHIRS
Structure (SMILES),IC50 (Histamine H1 receptor),IC50 (D(2) dopamine receptor [1]),IC50 [2],IC50 (D(2) dopamine receptor [3]),IC50 [4],IC50 [5],IC50 [6],IC50 [7],IC50 (D(3) dopamine receptor),IC50 (D(4) dopamine receptor),IC50 [8],IC50 [9],IC50 [10]
CN(C)CC1CC2c3cc(F)ccc3Cc3ccc(F)cc3N2O1 (configuration not stated),17 nM,–,< 1000 nM,447 nM,< 1000 nM,< 1000 nM,< 1000 nM,162 nM,< 1000 nM,< 1000 nM,–,6.2 nM,–
Cc1ccc2c(c1)Cc1ccccc1N1OC(CN(C)C)CC21 (configuration not stated),16 nM,–,–,–,–,–,–,–,–,–,–,6.3 nM,–
Cc1ccc2c(c1)N1OC(CN(C)C)CC1c1ccccc1C2 (configuration not stated),5.9 nM,< 1000 nM,< 1000 nM,55 nM,< 1000 nM,< 1000 nM,< 1000 nM,43 nM,< 1000 nM,< 1000 nM,3.1 nM,3 nM,–
CN(C)CC1CC2c3ccccc3Cc3cccc(Cl)c3N2O1 (configuration not stated),15 nM,–,–,–,–,–,–,–,–,–,32 nM,10 nM,–
COc1ccc2c(c1)C1CC(CN(C)C)ON1c1ccccc1C2 (configuration not stated),14 nM,–,–,–,–,–,–,–,–,–,302 nM,19 nM,–
CN(C)CC1CC2c3c(cccc3C(F)(F)F)Cc3ccccc3N2O1 (configuration not stated),48 nM,–,–,–,–,–,–,–,–,–,68 nM,7.6 nM,–
CN(C)CC1CC2c3cccc(Cl)c3Cc3ccccc3N2O1 (configuration not stated),< 1000 nM,–,–,–,–,–,–,–,–,–,< 1000 nM,< 1000 nM,–
Cc1cccc2c1Cc1ccccc1C1CC(CN(C)C)ON21 (configuration not stated),6 nM,–,–,–,–,–,–,–,–,–,91 nM,3.9 nM,–
CN(C)CC1CC2c3c(F)cccc3Cc3ccccc3N2O1 (configuration not stated),< 1000 nM,–,–,–,–,–,–,–,–,–,< 1000 nM,< 1000 nM,–
CN(C)CC1CC2c3ccccc3Cc3ccc(-c4ccccc4)cc3N2O1 (configuration not stated),7.9 nM,–,–,–,–,–,–,–,–,–,–,11 nM,22 nM
CN(C)CC1CC2c3cc(C(F)(F)F)ccc3Cc3ccccc3N2O1 (configuration not stated),< 1000 nM,–,–,–,–,–,–,–,–,–,< 1000 nM,< 1000 nM,–
CN(C)CC1CC2c3cccc(C(F)(F)F)c3Cc3ccccc3N2O1 (configuration not stated),37 nM,–,–,–,–,–,–,–,–,–,1000 nM,437 nM,–
Cc1cccc2c1C1CC(CN(C)C)ON1c1ccccc1C2 (configuration not stated),12 nM,–,–,–,–,–,–,–,–,–,48 nM,30 nM,–

# The remaining lines, values ahead:
IC50 (Histamine H1 receptor),IC50 (D(2) dopamine receptor [1]),IC50 [2],IC50 (D(2) dopamine receptor [3]),IC50 [4],IC50 [5],IC50 [6],IC50 [7],IC50 (D(3) dopamine receptor),IC50 (D(4) dopamine receptor),IC50 [8],IC50 [9],IC50 [10],Structure (SMILES)
2.6 nM,< 1000 nM,1590 nM,36 nM,302 nM,1170 nM,501 nM,45 nM,14 nM,14 nM,–,–,–,CN(C)CC1CC2c3ccccc3Cc3ccc(F)cc3N2O1 (configuration not stated)
2.3 nM,8.9 nM,200 nM,8.7 nM,135 nM,871 nM,479 nM,14 nM,0.55 nM,2.6 nM,3.5 nM,1 nM,–,CN(C)CC1CC2c3ccccc3Cc3ccc(Cl)cc3N2O1 (configuration not stated)
3.8 nM,–,–,–,–,–,–,–,–,–,54 nM,11 nM,–,CN(C)CC1CC2c3cc(F)ccc3Cc3ccccc3N2O1 (configuration not stated)
2.3 nM,–,–,–,–,–,–,–,–,–,–,12 nM,–,CN(C)CC1CC2c3cccc(F)c3Cc3ccccc3N2O1 (configuration not stated)
1.7 nM,–,–,–,–,–,–,–,–,–,24 nM,5 nM,–,CN(C)CC1CC2c3ccccc3Cc3c(F)cccc3N2O1 (configuration not stated)
1.3 nM,–,–,–,–,–,–,–,–,–,6.9 nM,4.7 nM,–,CN(C)CC1CC2c3ccccc3Cc3cc(F)ccc3N2O1 (configuration not stated)
